Results from US20050112064A1, “DNA-dependent MRI contrast agents” (priority 2003, published 2005).
Entries after “also recorded” stand apart in the source; their conditions may differ. Like-named read-outs stand apart in the source and are kept apart here. Where no end group is shown, it is not given here.

Columns and labels:
[1] = tested on: supercoiled plasmid DNA (pBR322); assay: DNA gel shift assay (agarose gel electrophoresis); type: binding; conditions: 5-25 μM ligand, 15 minutes, pBR322, 10 mM Tris pH 8.0
Method: DNA Gel Shift Assays. The affinity of EuP3, EuP2, and each free peptide for supercoiled plasmid DNA was examined by agarose gel electrophoresis. Plasmid (pBR322, New England Biolabs, Inc.) was incubated for 15 minutes at room temperature with increasing concentrations of each ligand (5-25 μM), prior to the addition of loading dye. Each lane contained 1 μg plasmid (50 μM base pairs) in 10 mM Tris buffer at pH 8.0.

[2] = Hydrolysis of bis-nitrophenylphosphate (BNPP) followed spectrophotometrically; type: biochemical; conditions: 37° C., BNPP 500 μM
Method: Hydrolytic Phosphate Cleavage. Because the EF-Hand is physiologically strictly a structural motif, an isolated Ca-binding loop's ability to affect hydrolytic cleavage was addressed. The hydrolysis of bis-nitrophenylphosphate (BNPP) was followed spectrophotometrically under turnover conditions. The absorbance increase at 400 nm due to liberated 4-nitrophenolate was observed over the initial 10-14 hours of the reaction (<10% BNPP converted). […] Plots of absorbance vs. time were converted to concentration units (ε=18,500 M^−1 cm^−1) to give first order rate constants (Sardesai et al., 1994).

[3] = Relaxivity (water proton relaxation) without DNA; type: physicochemical; conditions: 37° C., 50 mM HEPES, pH 7.4
Method: (§1) P3W peptide ([…], Gd-binding EF-hand site is shaded) was synthesized and purified (>95% by HPLC) by the Caltech Peptide Synthesis Facility, Pasadena, Calif. The gadolinium complex was prepared by dissolving P3W in 50 mM HEPES buffer, pH 7.4, and adding 0.8 equivalents Gd(NO3)3 to give a 500 μM stock solution. Peptide concentration was estimated by absorbance (ε280=7290 M^−1cm^−1); the absence of uncomplexed Gd^3+ was confirmed by colorometric analysis with xylenol orange. All Gd concentrations were determined by ICP-MS (Agilent 7500). Relaxation rates were determined at 20 and 60 MHz, 37° C. using Broker NMS 120 and Brtiker mg60 Minispec spectrometers, respectively. NMRD profiles were recorded on a Koenig-Brown field cycling relaxometer; phantoms were imaged on a GE 1.5T clinical imager.

[4] = tested on: 14-mer d.s. DNA: self-complementary 5′-GAGCTAATTAGCTC-3′; assay: Relaxivity in the presence of one equivalent DNA; type: physicochemical; conditions: 37° C., 50 mM HEPES, pH 7.4, one equivalent DNA
Method: as §1

[5] = T1-weighted MR imaging of phantoms at 1.5 tesla; conditions: 1.5 T, HEPES buffer pH 7.4, ambient temperature
Method: FIG. 6. T1-weighted MR images at 1.5 tesla of phantoms in HEPES buffer, pH 7.4, ambient temperature. (A) 3D SPGR TR=40, TE=3.1, α=75°. Images: a) HEPES; b) 80 μM P3W; c) 80 μM DNA (14-mer duplex); d) 115 μM GdDTPA; e) 115 μM GdDTPA+DNA (1:1); f) 8.6 μM GdP3W+DNA (1:1); g) 86 μM GdP3W; h) 86 μM GdP3W+DNA (1:1); i) 86 μM GdP3W+DNA (1:1)+NaCl (150 μM). (B) 3D SPGR TR=40, TE=4.0, α=40°. Images: a) HEPES, b) 48 μM GdDTPA, c) 48 μM GdP3W; d) 48 μM GdP3W+DNA.
as §1

[6] = cited from earlier work
[7] = tested on: supercoiled, double-stranded DNA; assay: Cleavage of supercoiled plasmid monitored by agarose gel electrophoresis; type: biochemical
Method: The conversion of supercoiled plasmid (type I) to open circular (type II), linear (type III), or smaller fragments was monitored by agarose gel electrophoresis. Because the synthetic peptides bind strongly to DNA, thus preventing the observation of products, the peptides were chelated prior to electrophoresis (Falke et al., 1994). At the point each reaction was quenched (0.1 M EDTA), a suspension of neutral, washed, cation resin (Amberlyst, 10-20 μL) was incubated with each sample for 30 minutes, spun down, and the supernatent loaded into wells. After 24 hours of reaction (incubated at 37° C.), the concentration-dependent formation of open circular plasmid was observed. […] Over a 10-300 μM EuP3 gradient, nicking occurred from 10-150 μM, with the greatest amount of cleavage at 30 μM EuP3.
Sequence Selective DNA Cleavage. […] This cleavage is not dependent on the strain inherent in supercoiled plasmid, as cleavage of linearized ^32P-labeled DNA oligonucleotides was observed as well. Labeled fragments were incubated with Ce(NH3)6(NO3)4 and varying concentrations of peptides P3 or P3W at 37° C. overnight and analyzed by acrylamide gel electrophoresis. Cleavage was concentration dependent, and distinct between metallopeptides.

[8] = tested on: T1, P3 (engrailed HTH / consensus EF-hand chimeric peptide) (synthetic construct); assay: EMSA; conditions: Eu(III) complex EuP3; agarose gel shift, estimate from quantified band volumes; 10 mM Tris pH 8.0, room temp
T1 sequence: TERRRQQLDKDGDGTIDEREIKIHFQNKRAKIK

[9] = target: P4a (chimeric peptide: alpha2 and alpha3 of engrailed, minus the last turn of alpha2 and the beta-turn, with calmodulin loop I); assay: measured dissociation constants for EuP4a; method not stated; self-association in the presence of Eu(III)
[10] = 10 μM Eu/10 μM peptide, pH 7.7, 10 mM Tris buffer
[11] = 25 μM Eu/25 μM peptide, pH 7.7, 10 mM Tris buffer
[12] = 25 μM Eu/50 μM peptide, pH 7.7, 10 mM Tris buffer

[Cl][Eu]([Cl])[Cl] [EuCl3, reference compound]
gel shift / DNA affinity (in words) [1]: not | Rates (K(obs)) of BNPP cleavage ([2]; 10 μM Eu/0 peptide, pH 7.7, 5 mM Tris buffer): 5.2 ± 0.6 s^−1 × 10^7 | Rates (K(obs)) of BNPP cleavage ([2]; 12 μM Eu/0 peptide, pH 7.7, 5 mM Tris buffer): 5.7 ± 0.3 s^−1 × 10^7

O=C([O-])CN(CCN(CC(=O)[O-])CC(=O)O)CCN(CC(=O)[O-])CC(=O)O.[Gd+3] [GdDTPA]
r1 ([3]; 20 MHz): 4.6 mM⁻¹ s⁻¹ | r1 ([3]; 60 MHz): 3.5 mM⁻¹ s⁻¹ | r1 + DNA ([4]; 20 MHz): 4.9 mM⁻¹ s⁻¹ | r1 + DNA ([4]; 60 MHz): 3.5 mM⁻¹ s⁻¹ | signal / contrast in T1-weighted image, with DNA (1:1) [5]: did not increase the signal | signal / contrast in T1-weighted image, without DNA [5]: difficult to discern

O=C([O-])CN(CCN(CC(=O)[O-])C[C@H](COP(=O)([O-])OC1CCC(c2ccccc2)(c2ccccc2)CC1)N(CC(=O)[O-])CC(=O)[O-])CC(=O)[O-].[Gd+3].[H+].[H+].[H+] [MS-325]
relaxivity ([6]; 60 MHz): 23 mM⁻¹ s⁻¹

EuP3: Eu(III) metallopeptide of P3 (TERRRQQLDKDGDGTIDEREIKIHFQNKRAKIK)
gel shift / DNA affinity (in words) [1]: gel shift and disappearance of type I plasmid occurs; also recorded: DNA-binding affinity in the micromolar regime | Rates (K(obs)) of BNPP cleavage [2, 10]: 6.0 s^−1 × 10^7 | Rates (K(obs)) of BNPP cleavage [2, 11]: 7.3 s^−1 × 10^7 | Rates (K(obs)) of BNPP cleavage [2, 12]: 20.6 s^−1 × 10^7 | Rates (K(obs)) of BNPP cleavage ([2]; 50 μM Eu/50 μM peptide, pH 7.7, 5 mM Tris buffer): 17.5 ± 4 s^−1 × 10^7 | Rates (K(obs)) of BNPP cleavage ([2]; 50 μM Eu/100 μM peptide, pH 7.7, 5 mM Tris buffer): 11.5 ± 4 s^−1 × 10^7 | dependence of cleavage activity on increasing concentration [7]: falls off with increasing concentration | concentration range in which nicking occurred ([7]; 10-300 μM EuP3 gradient): 10 to 150 µM | concentration with the greatest amount of cleavage ([7]; 10-300 μM EuP3 gradient): 30 µM | cleavage of supercoiled DNA (in words) ([7]; 37° C.): catalyzes the cleavage of supercoiled, double-stranded DNA

EuP4a: Eu(III) metallopeptide of P4a (TERRRFDKDGNGYISAAELRHVKIWFQNKRAKIK)
Rates (K(obs)) of BNPP cleavage [2, 10]: 11.3 s^−1 × 10^7 | Rates (K(obs)) of BNPP cleavage [2, 11]: 56.3 s^−1 × 10^7 | Rates (K(obs)) of BNPP cleavage [2, 12]: 62.0 s^−1 × 10^7 | Rates (K(obs)) of BNPP cleavage ([2]; 50 μM Eu/50 μM peptide, pH 7.7, 10 mM Tris buffer): 149.5 s^−1 × 10^7 | Rates (K(obs)) of BNPP cleavage ([2]; 50 μM Eu/100 μM peptide, pH 7.7, 10 mM Tris buffer): 212.0 s^−1 × 10^7 | dependence of cleavage activity on increasing concentration [7]: does not

Gd-TREN-1-Me=3,2-HOPO
relaxivity ([6]; 20 MHz and 37° C.): 6 to 11 mM⁻¹ s⁻¹

pBR322 supercoiled plasmid
Kd [8]: 20 µM

TERRRFDKDGNGYISAAELRHVKIWFQNKRAKIK (also: Eu(III) complex)
Kdim (dimerization constant) [9]: > 300 µM
